The source of these data is US20220372448A1, “CELL LINE AND PRODUCING METHOD THEREOF” (University of Yamanashi, priority 2021, published 2022).

The data set relates to VeroE6/Rep #3 cells. The data set is described as follows: MTS assay for cell survival rate of VeroE6/Rep #3 cells. The following applies: 72 hours, EIDD-2801 20 μM, library compounds 10 μM. In general terms: Tetrazolium dyes change colour on reduction, which living cells bring about.

Turning to `CC(C)C(=O)OC[C@H]1O[C@@H](n2ccc(NO)nc2=O)[C@H](O)[C@@H]1O` [EIDD-2801, molnupiravir], the “cell proliferation / cell survival (MTS assay) compared with DMSO negative control” value is “a decrease in cell proliferation was not observed”.
